What was measured:
Assay in all cases: relative viability (nuclei count vs DMSO), 5 days (fraction); higher = more cells survive
[1] = compound: C[C@@H](N)c1ccc(C(=O)Nc2ccnc3[nH]ccc23)cc1 + CC(=O)c1c(C)c2cnc(Nc3ccc(N4CCNCC4)cn3)nc2n(C2CCCC2)c1=O [Palbociclib] (partner 0.5 µM)
Outline: (§1)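 Relative viability is defined as nuclei in treated wells over nuclei in vehicle wells. Duplicate plates were run and medians reported. Lung cancer cell lines in 1536-well plates were dosed by pin tool one day after seeding, with one drug or with a fixed anchor-drug dose plus five library-drug doses (not always all listed) in √10 steps, and nuclei were counted after 5 days.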

[2] = compound: C[C@@H](N)c1ccc(C(=O)Nc2ccnc3[nH]ccc23)cc1 + O=C(CCCCCCC(=O)Nc1ccccc1)NO [Vorinostat] (partner 1 µM)
Outline: as §1

[3] = compound: C[C@@H](N)c1ccc(C(=O)Nc2ccnc3[nH]ccc23)cc1 + C[C@]1(O)C[C@@H](c2nc(-c3ccc4ccc(-c5ccccc5)nc4c3)c3c(N)nccn32)C1 [Linsitinib] (partner 1 µM)
Outline: as §1

Tanzisertib + Linsitinib = compound: O[C@H]1CC[C@H](Nc2ncc3nc(Nc4c(F)cc(F)cc4F)n([C@H]4CCOC4)c3n2)CC1 [Tanzisertib] + C[C@]1(O)C[C@@H](c2nc(-c3ccc4ccc(-c5ccccc5)nc4c3)c3c(N)nccn32)C1 [Linsitinib] (partner 1 µM)
Outline: as §1

| Cell Line | relative viability ([1]; first compound 0.04 µM) | relative viability ([1]; first compound 0.1265 µM) | relative viability ([1]; first compound 0.4 µM) | relative viability ([1]; first compound 1.265 µM) | relative viability ([1]; first compound 4 µM) | relative viability ([2]; first compound 0.04 µM) | relative viability ([2]; first compound 0.1265 µM) | relative viability ([2]; first compound 0.4 µM) | relative viability ([2]; first compound 1.265 µM) | relative viability ([2]; first compound 4 µM) | relative viability ([3]; first compound 0.04 µM) | relative viability ([3]; first compound 0.1265 µM) | relative viability ([3]; first compound 0.4 µM) | relative viability ([3]; first compound 4 µM) | relative viability (Tanzisertib + Linsitinib; first compound 0.08 µM) | relative viability (Tanzisertib + Linsitinib; first compound 0.253 µM) | relative viability (Tanzisertib + Linsitinib; first compound 0.8 µM) | relative viability (Tanzisertib + Linsitinib; first compound 2.53 µM) | relative viability (Tanzisertib + Linsitinib; first compound 8 µM) | relative viability ([3]; first compound 1.265 µM) |
| --- | --- | --- | --- | --- | --- | --- | --- | --- | --- | --- | --- | --- | --- | --- | --- | --- | --- | --- | --- | --- |
| NCI-H2170 | 0.423 | 0.412 | 0.423 | 0.417 | 0.395 | 0.854 | 0.886 | 0.902 | 0.771 | 0.846 |  |  |  |  |  |  |  |  |  |  |
| HCC-366 | 0.474 | 0.392 | 0.379 | 0.455 | 0.383 | 0.385 | 0.306 | 0.486 | 0.181 | 0.398 | 0.615 | 0.63 | 0.785 | 0.49 | 0.757 | 0.59 | 0.691 | 0.576 | 0.419 |  |
| NCI-H2347 | 0.422 | 0.443 | 0.41 | 0.483 | 0.463 | 0.762 | 0.508 | 0.554 | 0.559 | 0.676 | 0.937 | 0.868 | 1.02 | 0.8 | 1.08 | 0.973 | 1.08 | 1.09 | 1.3 | 1.02 |
| COR-L 105 | 0.377 | 0.399 | 0.424 | 0.348 | 0.371 | 1.04 | 0.793 | 0.998 | 0.76 | 0.544 | 0.917 | 1.02 | 0.857 | 0.436 | 1.13 | 0.78 | 0.895 | 1.12 | 0.77 | 0.845 |
| 201T | 0.367 | 0.342 | 0.376 | 0.359 | 0.415 | 0.909 | 0.886 | 0.981 | 0.891 | 1.24 | 1.14 | 1.02 | 1.07 | 1.16 | 1.02 | 1.01 | 0.969 | 1.01 | 0.956 | 1.11 |
| NCI-H2126 | 0.34 | 0.351 | 0.364 | 0.378 | 0.389 | 1.02 | 0.685 | 0.738 | 0.432 | 0.916 | 0.726 | 0.72 | 0.805 | 0.781 | 0.814 | 0.77 | 0.712 | 0.726 | 0.736 | 0.705 |
| LC-2-ad | 0.472 | 0.53 | 0.458 | 0.413 | 0.411 | 0.497 | 0.736 | 0.713 | 0.476 | 0.369 | 0.849 | 0.922 | 0.877 | 0.615 | 0.94 | 0.838 | 0.921 | 0.812 | 0.796 | 0.83 |
| NCI-H2085 | 0.454 | 0.452 | 0.402 | 0.373 | 0.406 | 0.77 | 0.705 | 0.806 | 0.667 | 0.706 | 1.02 | 0.907 | 0.905 | 0.777 | 1.03 | 0.808 | 0.905 | 0.826 | 0.83 | 0.868 |
| NCI-H358 | 0.145 | 0.134 | 0.141 | 0.133 | 0.145 | 0.692 | 0.781 | 0.784 | 0.642 | 0.614 | 0.707 | 0.655 | 0.732 | 0.702 | 0.771 | 0.662 | 0.76 | 0.782 | 0.566 | 0.801 |
| H3255 | 0.299 | 0.298 | 0.298 | 0.336 | 0.286 | 0.89 | 0.816 | 0.886 | 0.655 | 0.715 | 0.997 | 1.04 | 1.26 | 0.947 | 0.966 | 0.841 | 0.983 | 0.907 | 0.636 | 0.957 |
| NCI-H2228 | 0.808 | 0.806 | 0.909 | 0.352 | 0.839 | 0.832 | 0.576 | 0.638 | 0.976 | 0.56 | 0.63 | 0.587 | 0.62 | 0.82 | 0.877 | 0.691 | 0.573 | 0.553 | 0.509 | 0.637 |
| CAL-12T | 0.558 | 0.438 | 0.519 | 0.161 | 0.428 | 0.863 | 0.771 | 0.914 | 0.876 | 0.897 | 0.928 | 0.888 | 0.88 | 0.719 | 0.896 | 0.769 | 0.882 | 0.977 | 0.817 | 1.09 |
| A-427 | 0.472 | 0.553 | 0.388 | 0.432 | 0.421 | 0.77 | 0.851 | 0.81 | 0.746 | 0.772 | 1.08 | 1.11 | 1.06 | 1.12 | 1.15 | 1.11 | 1.14 | 1.07 | 1.17 |  |
| HARA | 0.292 | 0.271 | 0.28 | 0.214 | 0.248 | 0.521 | 0.646 | 0.604 | 0.403 | 0.26 | 1.09 | 1.06 | 1.15 | 0.521 | 0.842 | 0.572 | 0.901 | 0.892 | 0.987 | 0.996 |
| NCI-H1793 | 0.348 | 0.295 | 0.355 |  | 0.385 | 0.894 | 0.905 | 0.991 |  | 1.01 | 1.02 | 0.878 | 0.83 | 0.787 | 1.04 | 0.686 | 0.972 | 0.884 | 0.816 |  |
| NCI-H2009 | 0.194 | 0.2 | 0.213 | 0.153 | 0.154 | 0.617 | 0.703 | 0.683 | 0.703 | 0.632 | 1.21 | 1.06 | 1.01 | 0.709 | 1.22 | 1.17 | 1.17 | 1.26 | 1.21 | 0.966 |
| ABC-1 | 0.662 | 0.775 | 0.789 | 0.976 | 0.552 | 1.23 | 1.11 | 1.01 | 0.998 | 0.941 | 0.894 | 0.81 | 0.998 | 0.683 | 0.728 | 0.65 | 1.07 | 0.977 | 0.736 | 0.911 |

From the supplement of paper PMC10307832
